Experimental data: patent publication US10028935B2, “Stabilized multi-functional antioxidant compounds and methods of use” (XPD Holdings, LLC, priority 2012, dated 2018)
Values after ≈ are worked out from the molar mass of the structure shown.

Tests used:
[1] = Hydrolysis in human whole blood (disappearance of Compound 45, appearance of NACA and carnosine); format: in vitro ADME; conditions: 37° C.
Description: To determine hydrolysis of Compound 45 and appearance of NACA and carnosine in blood, samples of human whole blood from healthy donors anti-coagulated with sodium heparin were thermally equilibrated to, and maintained at 37° C. in a water bath. Compound 45 was then spiked from a single freshly prepared stock solution into blood aliquots to create separate samples of varying Compound 45 starting concentrations (135 μM, 13.5 μM, 10.9 μM [5 μg/mL], and 2.2 μM [1 μg/mL]). Immediately after spiking, tubes were mixed by very gently rocking tubes manually for 5 minutes to ensure homogeneity and remained in the 37° C. water bath until all time points were collected. […] Plasma samples were processed for quantitation of the disappearance (hydrolysis) of Compound 45 and the appearance of NACA or carnosine, as described below. […]
Samples in 96-well plates were analyzed on a Waters Acquity UPLC™ liquid chromatograph interfaced with a Thermo Scientific TSQ Vantage triple quadrupole mass spectrometer with electrospray ionization in the positive ion mode. […]
Compound 45, Carnosine and the NACA-thio-ether derivative product eluted at approximately 1.3 minutes. Compound 45 was detected by selected reaction monitoring of the mass-to-charge (m/z) 371 to 110 transition. Carnosine was detected by selected reaction monitoring of the m/z 227 to 110 transition. […]

[2] = Solubility of stock solutions in dimethyl sulfoxide (DMSO); format: physicochemical; conditions: organic solvent or mixture, stock solution in dimethyl sulfoxide
Description: (§1) The solubility of Compound 45 and carnosine in physiologic buffer (phosphate buffered saline, pH 7.4; PBS) were determined using a BMG Labtech NEPHELOstar nephelometer (Offenburg, Germany) with Galaxy analytical software, version 4.32R2. Stock solutions of each compound were prepared initially in dimethyl sulfoxide (DMSO); Compound 45 was soluble at a concentration of 50 mM in DMSO, while carnosine was not. Subsequently, dilution series of both compounds were prepared directly in PBS (pH 7.4) for evaluation of solubility using nephlometry, with a top concentration of 500 mg/mL for each compound and serial 1:2 dilutions. A positive control compound was included to qualitatively illustrate concentration-solubility relationships using heat maps. Compound 45 was soluble in physiologic buffer at a concentration of 500 mg/mL, while carnosine was soluble only at concentrations of 250 mg/mL.

[3] = Storage stability by reversed-phase HPLC quantitation of degradation products (impurities); format: physicochemical; conditions: storage for 1 or 2 months at 5° C., 25° C./60% RH and 40° C./75% RH; FIGS. 1-3
Description: The stability of Compound 45 and N-acetylcysteine amide (NACA) were determined using reversed-phase HPLC quantitation of the appearance of degradation products (impurities) after storage of the compounds for 1 or 2 months at 5° C., 25° C./60% relative humidity (RH), and 40° C./75% RH.
The chromatographic system used was an Agilent 1100 HPLC comprised of a degasser (model G1322A), pump (model G1311A), autosampler (model G1329A), column compartment (model G1316A), and a diode array detector (model G1315A). Agilent Chemstation software Rev. B.03.02 [341] was used to acquire and analyze all chromatographic data. […] Assay, identity, and purity of Compound 45 and NACA, and quantitation of impurities arising over time, was accomplished by a reversed-phase isocratic method using a Phenomenex Synergi Polar-RP (250×4.6 mm, […]) column at 15° C., 0.2% perchloric acid (PCA) in water and acetonitrile as mobile phase, UV detection at 210 nm, and a standard run time of 20 minutes. Standard solutions of Compound 45 and NACA were prepared in 0.2% perchloric acid to generate standard curves for quantitation of Compound 45 and NACA. Replicate samples of each analyte were collected at study initiation (baseline), after 1 month of storage under the various conditions and after 2 months of storage for quantitation of parent and impurities. […]

[4] = Solubility in physiologic buffer (PBS, pH 7.4) by nephelometry; format: physicochemical; conditions: aqueous buffer, thermodynamic from solid, phosphate buffered saline, top concentration 500 mg/mL, serial 1:2 dilutions
Description: as §1

metabolism of thioester linkage in blood [1] | solubility [2] | solubility [4] | SMILES | extent of degradation as measured by the percent change (increase) from baseline in impurities [3]
rapidly metabolized in blood | ≥ 50 mM | ≥ 500 mg/mL | CC(=O)N[C@@H](CSC(=O)[C@H](Cc1cnc[nH]1)NC(=O)CCN)C(N)=O [Compound 45, (S)-S((R)-2-acetamido-3-amino-3-oxopropyl) 2-(3-aminopropanamido)-3-(1H-imidazol-5-yl)propanethioate] | less than the increase in impurities for NACA
 | < 50 mM | 250 mg/mL (≈ 1110 mM) | NCCC(=O)N[C@@H](Cc1cnc[nH]1)C(=O)O [carnosine, reference compound] | 
